In patent publication US20110183978A1, “Phenylpyri(mi)dinylazoles” (Bayer CropScience AG, priority 2009, published 2011) one finds chromatographic logP, pest or weed control and inhibition data, which are given here for 39 compounds.

The nature of data set [1]: physchem.
The test system of data set [2] is Alternaria solani. Description: Example M: in vivo test on Alternaria solani (leaf blotch disease/tomato/protective). Conditions: 168 h, tomato, protective, 500 ppm active substance, assessed 7 days after inoculation, read-out: % Wirkungsgrad (activity level). As for the experimental part: Solvent: 49 parts by weight N,N-dimethylformamide Emulsifier: 1 part by weight alkylaryl polyglycol ethers For the preparation of a suitable active substance preparation, 1 part by weight of active substance is mixed with the stated quantities of solvent and emulsifier and the concentrate is diluted to the desired concentration with water. For the testing for protective activity, young tomato plants are sprayed with the active substance preparation at the stated application dosage. […] 7 days after the inoculation, the assessment takes place.

Data set [3] relates to Sphaerotheca fuliginea. Description: Example L: in vivo test on Sphaerotheca fuliginea (powdery mildew on cucumber/protective). Conditions: Podosphaera fuliginea, 168 h, cucumber, protective, assessment 7 days after inoculation, read-out: % Wirkungsgrad. The method, then:
Solvent: 49 parts by weight N,N-dimethylformamide Emulsifier: 1 part by weight alkylaryl polyglycol ethers For the preparation of a suitable active substance preparation, 1 part by weight of active substance is mixed with the stated quantities of solvent and emulsifier and the concentrate is diluted to the desired concentration with water. For the testing for protective activity, young cucumber plants are sprayed with the active substance preparation at the stated application dosage. One day after the treatment, the plants are inoculated with a spore suspension of Sphaerotheca fuliginea. Next, the plants are placed in a greenhouse at 70% relative atmospheric humidity and a temperature of 23° C. 7 days after the inoculation, the assessment takes place.

Data set [4] deals with Fusarium graminearum. Description: microbe, parasite or virus in culture. It is filed as cell-based.

Broadly, the chromatographic logP is lipophilicity estimated from chromatographic retention.

Where two headings read alike, the source gives them in different places.

For the compound `O=C(CC1CC1)Nc1cc(-c2cn(C3CC3)nc2-c2ccc(F)cc2)ccn1` [Compound 323], in data set [1] (LogPA), the chromatographic logP came to 2.48. Moreover, the pest or weed control at 500 ppm stood at 95% in data set [2] and 86% in data set [3].

`CCC(C)C(=O)Nc1cc(-c2cn(CC)nc2-c2ccc(F)cc2)ccn1` (stereo not drawn) [Compound 340]: the chromatographic logP in data set [1] (LogPA) was found to be 2.42. The pest or weed control at 500 ppm in data set [2] and in data set [3] was 95% throughout.

Turning to `CCn1cc(-c2ccnc(NC(=O)[C@H](C)O)c2)c(-c2ccc(F)cc2)n1` [Compound 352], the chromatographic logP in data set [1] (LogPA) is 1.83. Also, the results for the pest or weed control at 500 ppm in data set [2] and in data set [3] were 95% and 73%, respectively.

Compound `CC(C)C(=O)Nc1cc(-c2cn(C3CC3)nc2-c2ccc(F)cc2)ccn1` [Compound 322] showed a chromatographic logP in data set [1] (LogPA) of 2.32. Further, the pest or weed control at 500 ppm in data set [2] and in data set [3] was 95% throughout.

With `CCC(=O)Nc1cc(-c2cn(C(C(=O)OC)C(C)C)nc2-c2ccc(F)cc2)ccn1` (stereo not drawn) [Compound 274], the chromatographic logP in data set [1] (LogPA) worked out at 2.67. Besides, the pest or weed control at 500 ppm in data set [2] was determined as 95%; in data set [3], 94%.

Take `Cc1c(-c2ccncc2)c(-c2ccc(F)cc2)nn1CC(F)F` [Compound 367]: the chromatographic logP in data set [1] (LogPA) came out at 1.49. For the same compound, the pest or weed control at 500 ppm stood at 95% in data set [2] and 84% in data set [3].

Turning to `CC(CC#N)n1cc(-c2ccnc(NC(=O)CC3CC3)c2)c(-c2ccc(F)cc2)n1` (stereo not drawn) [Compound 315], in data set [1] (LogPA), the chromatographic logP is 2.28. In addition, the pest or weed control at 500 ppm in data set [2] and in data set [3] was 95% each time.

Take `CCC(=O)Nc1cc(-c2cn(C3CC3)nc2-c2ccc(F)cc2)ccn1` [Compound 320]: in data set [1] (LogPA), the chromatographic logP was 1.97. Further, the pest or weed control at 500 ppm is 95% in data set [2] and 94% in data set [3].

In turn, `CCC(=O)Nc1cc(-c2cn(CC3OCCO3)nc2-c2ccc(F)cc2)ccn1` [Compound 278] yielded a chromatographic logP in data set [1] (LogPA) of 1.59. The pest or weed control at 500 ppm in data set [2] stood at 95%; in data set [3], 89%.

As for `CCC(=O)Nc1cc(-c2cn(C)nc2-c2ccc(F)cc2)ccn1` [Compound 296], in data set [1] (LogPA), the chromatographic logP is 1.56. For the same compound, the pest or weed control at 500 ppm in data set [2] came out at 100%; in data set [3], 84%.

With `CCC(C)C(=O)Nc1cc(-c2cn(C)nc2-c2ccc(F)cc2)ccn1` (stereo not drawn) [Compound 348], the chromatographic logP in data set [1] (LogPA) was found to be 2.14. In addition, the pest or weed control at 500 ppm in data set [2] and in data set [3] was 95% throughout.

`CC(C)C(=O)Nc1cc(-c2cn(C)nc2-c2ccc(F)cc2)ccn1` [Compound 298]: in data set [1] (LogPA), the chromatographic logP stood at 1.83. In addition, the pest or weed control at 500 ppm in data set [2] is 80%; in data set [3], 100%.

In the case of `CC(C)Cn1cc(-c2ccnc(NC3CC3)n2)c(-c2ccc(F)cc2)n1` [Compound 281], the chromatographic logP in data set [1] (LogPA) amounted to 2.41. For the same compound, the pest or weed control at 500 ppm turned out to be 95% in data set [2] and 94% in data set [3].

In turn, `CSCCn1cc(-c2ccnc(NC(=O)C(C)C)c2)c(-c2ccc(F)cc2)n1` [Compound 306] returned a chromatographic logP in data set [1] (LogPA) of 2.44. Moreover, the pest or weed control at 500 ppm in data set [2] worked out at 95%; in data set [3], 94%.

Turning to `CC(C)Nc1nccc(-c2cn(C(C)C)nc2-c2ccc(F)cc2)n1` [Compound 371], in data set [1] (LogPA), the chromatographic logP worked out at 2.92. Also, the pest or weed control at 500 ppm in data set [2] was 95%; in data set [3], 94%.

As to `CC(C)OC(=O)Nc1cc(-c2cn(C(C)C)nc2-c2ccc(F)cc2)ccn1` [Compound 181], the chromatographic logP in data set [1] (LogPA) amounted to 2.99. Also, the pest or weed control at 500 ppm in data set [2] amounted to 94%; in data set [3], 85%.

For the compound `CCC(=O)Nc1cc(-c2cn(CCSC)nc2-c2ccc(F)cc2)ccn1` [Compound 300], the chromatographic logP in data set [1] (LogPA) came out at 2.12. The pest or weed control at 500 ppm in data set [2] was 80%; in data set [3], 90%.

`Cn1cc(-c2ccnc(NC(=O)C3CCC3)c2)c(-c2ccc(F)cc2)n1` [Compound 349]: in data set [1] (LogPA), the chromatographic logP came out at 1.93. The pest or weed control at 500 ppm in data set [2] is 80%; in data set [3], 95%.

Compound `CCn1cc(-c2ccnc(NC(=O)C3CC3C)c2)c(-c2ccc(F)cc2)n1` (stereo not drawn) [Compound 341] had a chromatographic logP in data set [1] (LogPA) of 2.16. Besides, the pest or weed control at 500 ppm in data set [2] worked out at 95%; in data set [3], 100%.

`CCn1cc(-c2ccnc(NC(C)=O)c2)c(-c2ccc(F)cc2)n1` [Compound 342] came in with a chromatographic logP in data set [1] (LogPA) of 1.57. Also, the pest or weed control at 500 ppm in data set [2] came out at 95%; in data set [3], 94%.

For `CCC(C)Nc1nccc(-c2cn(CC(C)C)nc2-c2ccc(F)cc2)n1` (stereo not drawn) [Compound 286], the chromatographic logP in data set [1] (LogPA) was 2.68. In addition, the pest or weed control at 500 ppm was determined as 90% in data set [2] and 89% in data set [3].

With `CCn1cc(-c2ccnc(NC(=O)CC3CC3)c2)c(-c2ccc(F)cc2)n1` [Compound 291], in data set [1] (LogPA), the chromatographic logP turned out to be 2.29. Further, the figures for the pest or weed control at 500 ppm in data set [2] and in data set [3] were 100% and 95%, respectively.

The compound `CCCn1cc(-c2ccnc(NC(=O)CC3CC3)c2)c(-c2ccc(F)cc2)n1` [Compound 295] displayed a chromatographic logP in data set [1] (LogPA) of 2.66. The values for the pest or weed control at 500 ppm in data set [2] and in data set [3] were 100% and 94%, respectively.

In data set [1] (LogPA), `CCCn1cc(-c2ccnc(NC(=O)CC)c2)c(-c2ccc(F)cc2)n1` [Compound 292] showed a chromatographic logP of 2.15. In addition, the pest or weed control at 500 ppm in data set [2] came out at 100%; in data set [3], 95%.

Compound `COCC(=O)Nc1cc(-c2cn(C)nc2-c2ccc(F)cc2)ccn1` [Compound 297] yielded a chromatographic logP in data set [1] (LogPA) of 1.89. Besides, the pest or weed control at 500 ppm in data set [2] worked out at 100%; in data set [3], 90%.

For `CC(C)CC(=O)Nc1cc(-c2cn(C)nc2-c2ccc(F)cc2)ccn1` [Compound 347], the chromatographic logP in data set [1] (LogPA) turned out to be 2.12. For the same compound, the pest or weed control at 500 ppm in data set [2] and in data set [3] was 95% in each case.

For the compound `Cn1cc(-c2ccnc(NC(=O)c3ccccc3)c2)c(-c2ccc(F)cc2)n1` [Compound 346], the chromatographic logP in data set [1] (LogPA) is 2.42. For the same compound, the pest or weed control at 500 ppm in data set [3] was found to be 95%.

With `CC(c1ccccc1F)n1cc(-c2ccnc(NC(=O)CC3CC3)c2)c(-c2ccc(F)cc2)n1` (stereo not drawn) [Compound 250], the chromatographic logP in data set [1] (LogPA) is 3.54. Moreover, the values for the pest or weed control at 500 ppm in data set [2] and in data set [3] were 94% and 84%, respectively.

For `CCCn1cc(-c2ccnc(NC(=O)COC)c2)c(-c2ccc(F)cc2)n1` [Compound 293], the chromatographic logP in data set [1] (LogPA) amounted to 2.58. For the same compound, the results for the pest or weed control at 500 ppm in data set [2] and in data set [3] were 100% and 94%, respectively.

Turning to `CC(C)C(=O)Nc1cc(-c2cn(CCC#N)nc2-c2ccc(F)cc2)ccn1` [Compound 309], in data set [1] (LogPA), the chromatographic logP is 1.91. In addition, the pest or weed control at 500 ppm in data set [2] and in data set [3] was 100% throughout.

Compound `CC(C)C(=O)Nc1cc(-c2cn(Cc3ccccc3F)nc2-c2ccc(F)cc2)ccn1` [Compound 256] displayed a chromatographic logP in data set [1] (LogPA) of 3.03. The pest or weed control at 500 ppm amounted to 94% in data set [2] and 92% in data set [3].

Regarding `CCn1cc(-c2ccnc(NC(=O)CC(C)C)c2)c(-c2ccc(F)cc2)n1` [Compound 339], in data set [1] (LogPA), the chromatographic logP worked out at 3.47. The pest or weed control at 500 ppm in data set [2] and in data set [3] was 95% each time.

As for `CCn1cc(-c2ccnc(NC(=O)c3snnc3C)c2)c(-c2ccc(F)cc2)n1` [Compound 335], the chromatographic logP in data set [1] (LogPA) amounted to 2.72. The pest or weed control at 500 ppm in data set [3] was found to be 74%.

In data set [1] (LogPA), `CC(C)n1cc(-c2ccnc(NCc3ccccc3)n2)c(-c2ccc(F)cc2)n1` [Compound 369] yielded a chromatographic logP of 3.31. Moreover, the pest or weed control at 500 ppm in data set [2] turned out to be 90%; in data set [3] it was 88%.

In the case of `CC(C)Cn1cc(-c2ccnc(NC3COC3)n2)c(-c2ccc(F)cc2)n1` [Compound 279], the chromatographic logP in data set [1] (LogPA) came to 2.35. The pest or weed control at 500 ppm was found to be 70% in data set [2] and 100% in data set [3].

As for `COC(=O)C(C(C)C)n1cc(-c2ccnc(NC(=O)C(C)C)c2)c(-c2ccc(F)cc2)n1` (stereo not drawn) [Compound 277], the chromatographic logP in data set [1] (LogPA) turned out to be 3.05. The results for the pest or weed control at 500 ppm in data set [2] and in data set [3] were 100% and 94%, respectively.

The compound `CCn1cc(-c2ccnc(NC(=O)CCCC(=O)OC)c2)c(-c2ccc(F)cc2)n1` [Compound 331] returned a chromatographic logP in data set [1] (LogPA) of 2.02. Also, the pest or weed control at 500 ppm in data set [3] came to 94%.

Regarding `Cc1cc(-c2cn(C3CCCCO3)nc2-c2ccc(F)cc2)ccn1` (stereo not drawn) [Compound 31], the chromatographic logP in data set [1] (LogPA (logP of the stated pure compound or, in a mixture, of the main isomer, 1-substituted 3-aryl-1H-pyrazole)) was 1.38. Also, the pest or weed control at 500 ppm in data set [3] turned out to be 70%.

On to `COCC(=O)Nc1cc(-c2cn(Cc3ccccc3F)nc2-c2ccc(F)cc2)ccn1` [Compound 247], for which, in data set [1] (LogPA), the chromatographic logP was determined as 3.09. Moreover, the pest or weed control at 500 ppm in data set [2] worked out at 94%. Further, the inhibition at 50 µM in data set [4] (72 h, read-out: % Inhibition des Pilzwachstums bei 50 μM) was 96%; in data set [4] (168 h, read-out: % Inhibition der DON/AcDON produktion bei 50 μM), 99%.
